Test results as given in PubChem BioAssay (NCI).
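Protocol summary: plate cells (96-well), add compound at 5 concentrations, incubate 48 h, interpolate endpoints linearly. Definition used: TGI = concentration required for complete inhibition of growth.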

How the values were obtained:
Test in all cases: inhibition of tumour cell growth, NCI panel, 48 h
SF-268 CNS = system: SF-268 CNS
SK-MEL-5 melanoma = system: SK-MEL-5 melanoma
U251 CNS = system: U251 CNS
HCC-2998 colon = system: HCC-2998 colon
K-562 leukemia = system: K-562 leukemia
HT29 colon = system: HT29 colon
A498 renal = system: A498 renal
HCT-116 colon = system: HCT-116 colon
MCF7 breast = system: MCF7 breast
DU-145 prostate = system: DU-145 prostate
SK-MEL-2 melanoma = system: SK-MEL-2 melanoma
HOP-92 NSCLC = system: HOP-92 NSCLC
NCI-H522 lung = system: NCI-H522 lung

Row | SMILES | TGI (SF-268 CNS) | TGI (SK-MEL-5 melanoma) | TGI (U251 CNS) | TGI (HCC-2998 colon) | TGI (K-562 leukemia) | TGI (HT29 colon) | TGI (A498 renal) | TGI (HCT-116 colon) | TGI (MCF7 breast) | TGI (DU-145 prostate) | TGI (SK-MEL-2 melanoma) | TGI (HOP-92 NSCLC) | TGI (NCI-H522 lung)
1 | C/C=C\C(CC(=O)NCC(=O)c1c[nH]c2ccccc12)CC(=O)OC (centres undefined) | > 100 µM | > 100 µM | > 100 µM | > 100 µM | > 100 µM | > 100 µM | > 100 µM | > 100 µM | > 100 µM | > 100 µM | > 100 µM | > 100 µM | > 100 µM
2 | CN1CCN(/C(N)=C(\C#N)C(=O)Nc2ccc(Cl)cc2)CC1 | – | > 100 µM | > 100 µM | > 100 µM | > 100 µM | > 100 µM | > 100 µM | > 100 µM | > 100 µM | > 100 µM | > 100 µM | > 100 µM | –
3 | O=C1C(Br)=CC2(C=C1Br)CCNC1=C2C(=O)c2ncccc2C1=O | 4.99 µM | 1.62 µM | 5.6 µM | 4.23 µM | 0.516 µM | 4.56 µM | 2.62 µM | 1.74 µM | 2.78 µM | 3.06 µM | 0.38 µM | 4.38 µM | 1.06 µM
4 | Cn1nnnc1SC(F)(F)c1nc2ccccc2o1 | > 100 µM | > 100 µM | > 100 µM | > 100 µM | > 100 µM | > 100 µM | > 100 µM | > 100 µM | > 100 µM | > 100 µM | > 100 µM | > 100 µM | > 100 µM
5 | COc1cc(Nc2nc3cc(C(F)(F)F)ccc3nc2C(=O)O)cc(OC)c1OC | > 100 µM | > 100 µM | > 100 µM | > 100 µM | – | > 100 µM | > 100 µM | > 100 µM | > 100 µM | > 100 µM | 38.9 µM | 85 µM | > 100 µM
6 | O=C1c2c(Br)sc(Br)c2C(=O)C1(O)O | > 100 µM | 42.6 µM | > 100 µM | > 100 µM | 79.8 µM | > 100 µM | > 100 µM | 38.4 µM | > 100 µM | > 100 µM | 86.7 µM | 34.7 µM | 37.3 µM
7 | c1ccc2c3[nH]c(c2c1)=Nc1ccc(cc1)-c1nc2ccc(cc2o1)N=c1[nH]c(c2ccccc12)=Nc1ccc2nc(oc2c1)-c1ccc(cc1)N=3 | > 100 µM | 29.4 µM | 88.3 µM | 42.7 µM | 51.5 µM | > 100 µM | > 100 µM | > 100 µM | > 100 µM | > 100 µM | > 100 µM | > 100 µM | > 100 µM
8 | CC(=O)Nc1c(C(=N)C#N)ncn1CCO | > 100 µM | > 100 µM | > 100 µM | > 100 µM | > 100 µM | > 100 µM | > 100 µM | > 100 µM | > 100 µM | > 100 µM | > 100 µM | > 100 µM | > 100 µM
9 | CCOc1cc(NC(C)=O)ccc1C(=O)NNS(=O)(=O)c1ccc(NC(C)=O)cc1 | > 100 µM | 69.3 µM | – | > 100 µM | > 100 µM | > 100 µM | > 100 µM | > 100 µM | > 100 µM | > 100 µM | 95.2 µM | > 100 µM | > 100 µM
10 | N/C(=N\S(=O)(=O)c1ccc(-c2ncccc2C(F)(F)F)s1)Nc1ccc(Cl)cc1 | 31.5 µM | > 100 µM | 25.8 µM | – | 63.8 µM | 39.3 µM | 30.7 µM | 32.5 µM | 30 µM | 36.4 µM | 29.3 µM | 30 µM | 23.6 µM
11 | O=[N+]([O-])c1c(F)c(F)c2c(c1F)N(CCCCCl)c1ccccc1S2 | 18.3 µM | 32.7 µM | 25.3 µM | 8.48 µM | 4.74 µM | 6.74 µM | 21.1 µM | 11.2 µM | 11.9 µM | 26.1 µM | 8.18 µM | 39 µM | 12.3 µM
12 | Cc1[nH]n(-c2nc(O)c(-c3ccccc3)c(=O)[nH]2)c(=O)c1CCO | > 100 µM | > 100 µM | > 100 µM | – | > 100 µM | > 100 µM | > 100 µM | > 100 µM | > 100 µM | > 100 µM | > 100 µM | > 100 µM | > 100 µM
13 | CC1(C)OP(=O)(O)C=C1Sc1ccc([N+](=O)[O-])cc1[N+](=O)[O-] | > 100 µM | > 100 µM | > 100 µM | > 100 µM | > 100 µM | > 100 µM | > 100 µM | > 100 µM | > 100 µM | > 100 µM | > 100 µM | > 100 µM | > 100 µM
14 | CCOC(=O)CCC1(CCC(=O)OCC)CCCCCCCCC(CCC(=O)OCC)(CCC(=O)OCC)C(=O)C1=O | > 100 µM | > 100 µM | > 100 µM | > 100 µM | > 100 µM | > 100 µM | > 100 µM | > 100 µM | > 100 µM | > 100 µM | > 100 µM | > 100 µM | > 100 µM
15 | C=C1CCCCCCCCC/C=C/1SCCCSC | > 100 µM | > 100 µM | > 100 µM | > 100 µM | > 100 µM | > 100 µM | > 100 µM | > 100 µM | > 100 µM | > 100 µM | > 100 µM | > 100 µM | > 100 µM
16 | CCOC(=O)C(Cc1ccc(O)cc1)Nc1nc(=O)c2c(=O)oc(Cl)cc2o1 (centres undefined) | 17.3 µM | > 49 µM | 21.9 µM | 17.6 µM | 31.6 µM | 13.2 µM | 35.3 µM | 20.9 µM | 17.6 µM | 51.1 µM | 34.3 µM | 25.9 µM | 19.9 µM
17 | CC(=O)NC1C(Sc2ncn(C3OC(CO)C(O)C(O)C3NC(C)=O)n2)OC(CO)C(O)C1O (centres undefined) | > 100 µM | > 100 µM | > 100 µM | > 100 µM | – | > 100 µM | > 100 µM | > 100 µM | > 100 µM | > 100 µM | > 100 µM | > 100 µM | > 100 µM
18 | CCOP(=O)(OCC)/C(C#N)=C/c1ccc(-c2cc(C(F)(F)F)cc(C(F)(F)F)c2)o1 | 33.3 µM | – | 24.4 µM | 22.2 µM | 13.8 µM | 21.9 µM | 24.8 µM | 26.2 µM | 20 µM | 29.1 µM | 38.8 µM | 20.7 µM | 24.6 µM
19 | Cc1ccc(CSC(N)=Nc2ccccc2)cc1C | 36.7 µM | 34.9 µM | 31.6 µM | – | 61.7 µM | 40.1 µM | 33.2 µM | 32.1 µM | 37.9 µM | 55.4 µM | 33.6 µM | 45.7 µM | 35.4 µM
20 | CN1CC=C(c2c(N)nc(N)[nH]c2=O)CC1 | > 100 µM | > 100 µM | > 100 µM | – | > 100 µM | > 100 µM | > 100 µM | > 100 µM | > 100 µM | > 100 µM | > 100 µM | > 100 µM | > 100 µM
21 | S=C1NCCN1C(=S)Nc1ccccc1 | > 100 µM | > 100 µM | > 100 µM | > 100 µM | > 100 µM | > 100 µM | > 100 µM | > 100 µM | > 100 µM | > 100 µM | > 100 µM | > 100 µM | > 100 µM
22 | O=c1[nH]nc(Cc2ccc(Cl)cc2)n1/N=C/c1cccs1 | 42.9 µM | – | > 100 µM | > 100 µM | > 100 µM | 40.2 µM | > 100 µM | > 100 µM | > 100 µM | > 100 µM | 93.6 µM | 64.2 µM | 68.8 µM
23 | Cc1ccc2c(c1)CC1(Cc3cccc(C)c3C1=O)C2=O (centres undefined) | > 100 µM | > 100 µM | > 100 µM | > 100 µM | > 100 µM | > 100 µM | > 100 µM | > 100 µM | > 10 µM | > 100 µM | – | > 100 µM | > 100 µM
24 | COc1ccc(/C(Cl)=C(\C#N)c2ccc(OC)c(OC)c2)cc1OC | – | > 100 µM | > 100 µM | > 100 µM | > 100 µM | > 100 µM | > 100 µM | > 100 µM | > 100 µM | > 100 µM | > 100 µM | > 100 µM | > 100 µM
25 | COCn1cnc2c(=O)nc(SC)n(-c3ccccc3)c21 | > 100 µM | > 100 µM | – | > 100 µM | > 100 µM | > 100 µM | > 100 µM | > 100 µM | > 100 µM | > 100 µM | > 100 µM | > 100 µM | > 100 µM
26 | CC1(C)O[C@H]2OC(CO)C(N=[N+]=[N-])[C@H]2O1 (some centres undefined) | > 100 µM | > 100 µM | > 100 µM | > 100 µM | – | > 100 µM | > 100 µM | > 100 µM | > 100 µM | > 100 µM | > 100 µM | > 100 µM | > 100 µM
27 | CC(=O)O[C@@]12CO[C@@H]1CC(O)[C@@]1(C)C(=O)[C@H](O)C3=C(C)C(O)C[C@@](O)(C(OC(=O)c4ccccc4)C12)C3(C)C (some centres undefined) | > 100 µM | > 100 µM | 18.1 µM | 21.6 µM | > 100 µM | 23.8 µM | > 100 µM | 19.2 µM | > 100 µM | > 100 µM | – | > 100 µM | –
